Data on 5 compounds can be found in publication PMC9171976 (Frontiers in Nutrition, 2022).

One data set can be described thus: clinical. The settings on record: male, human, in vivo, 20 mg.
For data set [1] the following is noted: rats; single oral dose of green tea extract 400 mg/kg 30 min before simvastatin; cited from earlier work.
For data set [2] the following is noted: male, human, in vivo, 20 mg.
The nature of data set [3]: Simvastatin-herb pharmacokinetic interaction study, plasma simvastatin lactone and acid by LC-MS/MS. The settings on record: male, human, po, 20 mg.
The test system of another data set is human OATP1B1. Further details: method as in PMID 32006472. The settings on record: low concentration; CHO cells; cited from earlier work.
Details of data set [4]: method as in PMID 24419562. The settings on record: healthy volunteers; cited from earlier work.
The conditions of data set [5]: same extract given daily for 2 weeks and simultaneously with the dose of rosuvastatin; cited from earlier work.

`CCC(C)(C)C(=O)O[C@H]1C[C@@H](C)C=C2C=C[C@H](C)[C@H](CC[C@@H](O)C[C@@H](O)CC(=O)O)[C@H]21` [Simvastatin acid, simvastatin acid]: the AUC(0-t) in “clinical” (AUC0–24h) was found to be 16.1 ng·h/mL. In addition, the half-life in the data set “clinical” (po, T1/2) is 236 min. The Tmax in “clinical” (po, Tmax) was determined as 3.5 h. Further, the “Increase of AUC0–6h with green tea extract” value in data set [1] is 2.0 fold. For the same compound, the “AUC0–24h” value in data set [2] is 12.1 (54.6) h⋅μg/L.
As to `CCC(C)(C)C(=O)O[C@H]1C[C@@H](C)C=C2C=C[C@H](C)[C@H](CC[C@@H]3C[C@@H](O)CC(=O)O3)[C@H]21` [Simvastatin lactone, simvastatin], the half-life was 298 min in data set [3] (T1/2, 18 subjects, simvastatin 20 mg with green tea extract, geometric mean (% CV)); 271 min in data set [3] (T1/2, 18 subjects, simvastatin 20 mg with soy isoflavones, geometric mean (% CV)); 239 min in data set [3] (T1/2, SLCO1B1 521CC (n = 4), after green tea); 234 min in data set [3] (T1/2, SLCO1B1 521CC (n = 4), after soy isoflavones); 290 min in data set [3] (T1/2, SLCO1B1 521CC (n = 4), baseline); 283 min in data set [3] (T1/2, SLCO1B1 521TC (n = 8), after green tea). Further, the half-life in data set [3] (T1/2, SLCO1B1 521TC (n = 8), after soy isoflavones) was 283 min; in data set [3] (T1/2, SLCO1B1 521TC (n = 8), baseline) it was 272 min; in data set [3] (T1/2, SLCO1B1 521TT (n = 6), after green tea), 369 min; in data set [3] (T1/2, SLCO1B1 521TT (n = 6), after soy isoflavones), 283 min. The “Effect of green tea extract on t1/2” value in data set [1] was “no effect”.
Turning to `O=C(O[C@@H]1Cc2c(O)cc(O)cc2O[C@@H]1c1ccc(O)c(O)c1)c1cc(O)c(O)c(O)c1` [epicatechin gallate (ECG), epicatechin gallate], the “Stimulating effect on OATP1B1-mediated DCF uptake” value in the data set on human OATP1B1 is “about 160%”.
For `CC(C)(C)NCC(O)COc1cccc2c1CC(O)C(O)C2` (stereo not shown) [nadolol], the “Reduction of systemic exposure with green tea taken as a drink” value in data set [4] is 85%.
`CC(C)c1nc(N(C)S(C)(=O)=O)nc(-c2ccc(F)cc2)c1/C=C/[C@@H](O)C[C@@H](O)CC(=O)O` [rosuvastatin]: the “Reduction of systemic exposure with green tea extract” value in data set [5] is on record as “about 20%”.
